Assay results: ChEMBL document CHEMBL1201862, “PubChem BioAssay data set” (2004)
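Dose response: 5 concentrations. Exposure: 48 h. Format: 96-well plates. Endpoint: linear interpolation; highest concentration if not reached. Abbreviation: GI50, concentration required for 50% inhibition of growth.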 Activity calls are given as the source filed them. Rule as the data show it: active = GI50 up to about 1.1 µM and inactive = higher.

Assays:
Assay in all cases: NCI-60 cell line screen, 48 h
HT-29 = test system: HT-29
UACC-257 = test system: UACC-257
OVCAR-8 = test system: OVCAR-8
HL-60 = test system: HL-60
UACC-62 = test system: UACC-62
HCT-15 = test system: HCT-15
LOX IMVI = test system: LOX IMVI
MOLT-4 = test system: MOLT-4
SK-OV-3 = test system: SK-OV-3
UO-31 = test system: UO-31
K562 = test system: K562
TK-10 = test system: TK-10
M19-MEL = test system: M19-MEL
SK-MEL-28 = test system: SK-MEL-28
Malme-3M = test system: Malme-3M
MDA-MB-231 = test system: MDA-MB-231
BT-549 = test system: BT-549
CCRF-CEM = test system: CCRF-CEM
SK-MEL-5 = test system: SK-MEL-5
DMS-114 = test system: DMS-114

| SMILES | GI50 (HT-29) | GI50 (UACC-257) | GI50 (OVCAR-8) | GI50 (HL-60) | GI50 (UACC-62) | GI50 (HCT-15) | GI50 (LOX IMVI) | GI50 (MOLT-4) | GI50 (SK-OV-3) | GI50 (UO-31) | GI50 (K562) | GI50 (TK-10) | GI50 (M19-MEL) | GI50 (SK-MEL-28) | GI50 (Malme-3M) | GI50 (MDA-MB-231) | GI50 (BT-549) | GI50 (CCRF-CEM) | GI50 (SK-MEL-5) | GI50 (DMS-114) |
| --- | --- | --- | --- | --- | --- | --- | --- | --- | --- | --- | --- | --- | --- | --- | --- | --- | --- | --- | --- | --- |
| Nc1ncnc2sc(Nc3ccccc3)nc12 | 7.28 µM (inactive) | > 100 µM (inactive) | > 100 µM (inactive) | 2.54 µM (inactive) | > 100 µM (inactive) | > 100 µM | 99.3 µM (inactive) | > 100 µM (inactive) | 46.2 µM (inactive) | 45.8 µM (inactive) | 22.6 µM (inactive) | 46.9 µM (inactive) | > 100 µM (inactive) | > 100 µM (inactive) | > 100 µM (inactive) |  |  |  |  |  |
| O=C1CC(c2cccc([N+](=O)[O-])c2)C2(C(=O)NC(=S)NC2=O)C(c2cccc([N+](=O)[O-])c2)C1 (stereo unspecified) | 40.9 µM (inactive) | 89.7 µM (inactive) | 21.2 µM (inactive) | 40.3 µM (inactive) | 23.2 µM (inactive) | 25.5 µM | 16.5 µM (inactive) | 66.4 µM (inactive) | 32.7 µM (inactive) | 47.2 µM (inactive) | 52 µM (inactive) | 13.9 µM (inactive) |  | 52.8 µM (inactive) | 11.6 µM (inactive) | 16.6 µM (inactive) | 26.2 µM (inactive) | 27.6 µM (inactive) | 82.2 µM (inactive) |  |
| O=S(=O)(O)/C(=N\c1cccc(Cc2ccccc2)c1)Nc1cccc(Cc2ccccc2)c1 | 18 µM (inactive) | 24.2 µM (inactive) | 18.5 µM (inactive) | 33.4 µM (inactive) | 16.5 µM (inactive) | 17.6 µM | 12.9 µM (inactive) | 32.1 µM (inactive) | 21 µM (inactive) | 15.8 µM (inactive) | 31.4 µM (inactive) | 19.8 µM (inactive) |  | 19.6 µM (inactive) | 17.5 µM (inactive) | 17.8 µM (inactive) | 17.7 µM (inactive) | 27.2 µM (inactive) | 18.1 µM (inactive) |  |
| CC(C)(C)c1cc2nc(c1)C(C(F)(F)F)(C(F)(F)F)OB(Br)OC2(C(F)(F)F)C(F)(F)F | 0.156 µM (active) | < 0.01 µM (active) | < 0.01 µM (active) |  | 0.0176 µM (active) | 0.0299 µM | 0.0378 µM (active) | < 0.01 µM (active) | 1.3 µM (inactive) | 0.292 µM (active) | 0.0434 µM (active) | 0.0802 µM (active) | 0.0268 µM (active) | 4.8 µM (inactive) | 0.617 µM (active) |  |  | < 0.01 µM (active) |  | < 0.01 µM (active) |
| Nc1cccc(-c2cc(O)c3cc4c(cc3n2)OCO4)c1 | 1.74 µM (inactive) |  | 2.11 µM (inactive) | 1.93 µM (inactive) | 0.402 µM (active) | 1.23 µM | 1.23 µM (inactive) | 2.07 µM (inactive) | 1.28 µM (inactive) | 12.5 µM (inactive) | 0.792 µM (active) | 6.64 µM (inactive) | 0.931 µM (active) | 2.19 µM (inactive) | 0.318 µM (active) | 1.73 µM (inactive) | > 100 µM (inactive) | 0.665 µM (active) | 0.427 µM (active) |  |
| Cc1c2cc[n+](C)cc2c(C)c2c1[nH]c1ccc(OCC(F)(F)F)cc12 | 2.28 µM (inactive) |  | 0.798 µM (active) |  | 6.82 µM (inactive) |  |  | 2.61 µM (inactive) | 3.89 µM (inactive) |  | 2.65 µM (inactive) |  | 2.14 µM (inactive) |  | 2.02 µM (inactive) |  |  | 4.16 µM (inactive) | 1.55 µM (inactive) | 1.42 µM (inactive) |
